Source: patent US7241570B2, “Method of screening for agents that regulate the shedding of membrane bound proteins and methods of use” (University of Utah Research Foundation, priority 2001, dated 2007)

Columns and labels:
[1] = tested on: β-APP shedding from embryonic fibroblasts; experiment: Release of endogenous β-APP from embryonic fibroblasts; type: cell-based, mouse
Description: TACE is the only enzyme known to shed soluble TGFα, a process enhanced by stimulation with serum or PMA. Peschon, J. J. et al. Science 282, 1281-1284 (1998). It is not known whether or not the cytoplasmic tail of TACE is required to activate TGFα shedding. To test if DGKδ affected release of TGFα, the amounts of soluble TGFα in the culture media of dgkd^−/− and wild-type embryonic fibroblasts transfected with pro-TGFα were compared. […] Supporting a role for DGKδ in stimulated TGFα shedding, PMA-induced shedding of TGFα by dgkd^−/− cells was approximately 25% that of stimulated wild-type cells (FIG. 4A, left). […] Since TACE is the only enzyme known to shed TGFα, DGKδ was likely affecting TACE. TACE is also known to cleave β-APP, so the release of endogenous β-APP from embryonic fibroblasts was examined next. Reddy, P. et al. J. Biol. Chem. 275, 14608-14614 (2000).

[2] = tested on: DGKδ and TACE; experiment: Co-immunoprecipitation of DGKδ and myc-TACE overexpressed in COS7 cells; type: cell-based; conditions: COS7 cells after starvation (0.5% serum for 2 hrs)
Description: According to previous experiments, DGKδ appears to regulate the activity of TACE toward some of its substrates. Based on the data, however, it is not clear whether DGKδ directly activates TACE or indirectly affects its activity through another protein. It was hypothesized that in order to regulate TACE, DGKδ must associate with it or a complex of proteins that contains TACE. To address whether this occurs in vivo, the enzymes were overexpressed in COS7 cells and then co-immunoprecipitation analysis was performed. Myc-tagged TACE in cell lysates was immunoprecipitated with an anti-myc monoclonal antibody, and then immune complexes were analyzed for co-immunoprecipitation of DGKδ by immunoblotting. When cells were grown in normal medium (10% FBS) DGKδ clearly co-immunoprecipitated with TACE (FIG. 6 left). Controls using normal IgG for immunoprecipitation instead of anti-myc antibody, or where anti-myc was used, but myc-TACE was not included in the transfection, established the specificity of DGKδ-TACE co-immunoprecipitation. Two agents previously shown to induce TACE activity are serum factors and PMA. […] Thus, stimuli that increase TACE activity enhance an interaction between DGKδ and TACE, providing further evidence that DGKδ positively regulates TACE activity.

[3] = tested on: TNFα release from liver and spleen cell suspensions; experiment: TNFα ectodomain shedding from liver and spleen cell suspensions (ELISA); type: cell-based, mouse; conditions: LPS 5 μg/mL, PMA 50 ng/mL, liver and spleen cell suspensions of newborn mice
Description: TACE was originally identified as the enzyme that proteolytically releases TNFα from the cell surface. Black, R. et al. Nature 385, 729-733 (1997); Moss, M. L. et al. Nature 385, 733-736 (1997). Whether deleting DGKδ affected ectodomain shedding of TNFα from liver and spleen cell suspensions was tested—where hematopoietic activity is highest in newborn mice. Tamura, K. et al. Cell 102, 221-231 (2000). To induce release on TNFα, the cell suspensions were stimulated with lipopolysaccharide (LPS, […]), PMA (50 ng/mL), or a combination of LPS (5 μg/mL) and PMA (50 ng/mL). As measured by ELISA, both agents induced release of TNFα into the medium, with LPS inducing a five-fold increase and PMA causing a three-fold increase. Combining LPS and PMA increased TNFα shedding twenty-fold. […] Reddy, P. et al. J. Biol. Chem. 275, 14608-14614 (2000)

[4] = tested on: phosphorylated ERK1 and 2; experiment: ERK phosphorylation after exogenous EGF in primary embryonic fibroblasts (immunoblot densitometry); type: cell-based, mouse
Description: Whether signaling downstream of EGFR was affected in DGKδ mutant mice was also examined. Since the MAPK pathway is a major route of EGFR signaling, ERK phosphorylation was examined in cell lines developed from knockout mice. Prenzel, N., et al. Endocrine-Related Cancer 8, 11-31 (2001). In primary embryonic fibroblasts from wild-type mice, exogenous EGF caused a 2.2 fold increase in phosphorylated ERK1 and 2 as judged by densitometry of the immunoblot bands (FIG. 3). […] Activation of EGFR signaling is known to mediate stress fiber formation induced by serum factors. Prenzel, N., et al. Endocrine-Related Cancer 8, 11-31 (2001). […] Thus, whether DGKδ affects the activity of TACE was examined next.

[5] = tested on: phosphatidylinositol 5-kinases; conditions: cited from earlier work

Compound: CCCCCCCCCCCCCC(=O)O[C@@H]1[C@@H](C)[C@@]2(O)[C@@H](C=C(CO)C[C@]3(O)C(=O)C(C)=C[C@@H]23)[C@@H]2C(C)(C)[C@]12OC(C)=O [PMA]
- increase in β-APP shedding ([1]; dgkd+/+ embryonic fibroblasts): 6-8 fold
- increase in β-APP shedding ([1]; dgkd−/− embryonic fibroblasts): moderate increase
- co-immunoprecipitation of DGKδ and TACE [2]: significantly increased
- increase in release of TNFα into the medium [3]: three-fold

Compound: EGF: exogenous EGF, EGF receptor ligand
- increase in phosphorylated ERK1 and 2 ([4]; primary embryonic fibroblasts from DGKδ null mice): 2.1 fold
- increase in phosphorylated ERK1 and 2 ([4]; primary embryonic fibroblasts from wild-type mice, densitometry of immunoblot bands): 2.2 fold

Compound: lipopolysaccharide [LPS]
- increase in release of TNFα into the medium [3]: five-fold

Compound: phosphatidic acid [PA]
- activity of phosphatidylinositol 5-kinases in the presence of PA [5]: 8-14 fold
